Consider one molecule from article doi:10.1101/2020.04.24.059154v2 (biorxiv, 2021).

This test has as its target T1, AfLPMO16 (Aspergillus fumigatus, UniProt A0A7D5FGU2).
T1 sequence (A0A7D5FGU2 20-290 limits assumed): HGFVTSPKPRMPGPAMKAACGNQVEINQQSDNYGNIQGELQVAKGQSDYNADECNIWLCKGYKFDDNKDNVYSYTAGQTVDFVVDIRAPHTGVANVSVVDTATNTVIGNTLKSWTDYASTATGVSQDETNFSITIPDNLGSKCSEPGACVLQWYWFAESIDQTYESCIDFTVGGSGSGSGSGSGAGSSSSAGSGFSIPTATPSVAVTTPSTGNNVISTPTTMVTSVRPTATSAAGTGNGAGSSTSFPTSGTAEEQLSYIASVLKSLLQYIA
In words: spectrophotometric 1-coerulignone formation at […] nm, Lineweaver-Burk plot. The format is biochemical. The following applies: 5 uM hydrogen peroxide as co-substrate, 100 mM phosphate buffer pH 6.0, 30 C.

With `COc1cccc(OC)c1O` [2,6-dimethoxyphenol], the Km is 5.4 mM.

For orientation: Km means the substrate concentration at which the rate is half of its maximum.
